Source: ChEMBL document CHEMBL1909046, “DrugMatrix in vitro pharmacology data”

How the values were obtained:
Progesterone receptor = target: T1, Progesterone receptor (Bos taurus, UniProt Q690N0); assay: DRUGMATRIX: Progesterone radioligand binding (ligand: [3H] R-5020); assay type: tissue-based, Uterus; settings: Not Active = under 50% inhibition at 10 µM
T1 sequence (Q690N0 whole entry): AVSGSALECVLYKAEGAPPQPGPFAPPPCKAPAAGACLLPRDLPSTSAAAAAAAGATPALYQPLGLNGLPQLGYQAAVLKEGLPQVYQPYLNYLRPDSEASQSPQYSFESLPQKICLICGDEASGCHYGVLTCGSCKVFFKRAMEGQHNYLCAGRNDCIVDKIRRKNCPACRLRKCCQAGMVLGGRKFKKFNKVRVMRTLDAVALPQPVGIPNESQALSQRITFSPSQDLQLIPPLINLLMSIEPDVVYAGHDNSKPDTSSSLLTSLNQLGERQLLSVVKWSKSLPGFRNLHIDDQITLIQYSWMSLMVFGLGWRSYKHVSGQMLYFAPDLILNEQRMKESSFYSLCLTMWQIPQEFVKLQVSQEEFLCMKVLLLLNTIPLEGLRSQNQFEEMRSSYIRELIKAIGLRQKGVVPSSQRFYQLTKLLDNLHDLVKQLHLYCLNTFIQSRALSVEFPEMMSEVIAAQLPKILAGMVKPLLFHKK

[1] = target: Tyrosine-protein kinase Fyn (Homo sapiens, UniProt P06241); assay: biochemical; assay type: cell-based, Insect cells; settings: insect cells;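 note: enzymatic inhibition of Fyn kinase activity measured with Poly(Glu:Tyr) as the phosphorylation substrate; in other assays of this panel Not Active means under 50% inhibition at 10 µM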
[2] = DRUGMATRIX: Phorbol Ester radioligand binding (ligand: [3H] PDBu); assay type: cell membranes, Mus musculus, ICR, Brain, Membrane; settings: Not Active = under 50% inhibition at 10 µM
[3] = target: T2, Alpha-1B adrenergic receptor (Rattus norvegicus, UniProt P15823); assay: DRUGMATRIX: Alpha-1B adrenergic receptor radioligand binding (ligand: prazosin); assay type: cell membranes, Wistar, Liver, Membrane; settings: Not Active = under 50% inhibition at 10 µM
T2 sequence (P15823 whole entry): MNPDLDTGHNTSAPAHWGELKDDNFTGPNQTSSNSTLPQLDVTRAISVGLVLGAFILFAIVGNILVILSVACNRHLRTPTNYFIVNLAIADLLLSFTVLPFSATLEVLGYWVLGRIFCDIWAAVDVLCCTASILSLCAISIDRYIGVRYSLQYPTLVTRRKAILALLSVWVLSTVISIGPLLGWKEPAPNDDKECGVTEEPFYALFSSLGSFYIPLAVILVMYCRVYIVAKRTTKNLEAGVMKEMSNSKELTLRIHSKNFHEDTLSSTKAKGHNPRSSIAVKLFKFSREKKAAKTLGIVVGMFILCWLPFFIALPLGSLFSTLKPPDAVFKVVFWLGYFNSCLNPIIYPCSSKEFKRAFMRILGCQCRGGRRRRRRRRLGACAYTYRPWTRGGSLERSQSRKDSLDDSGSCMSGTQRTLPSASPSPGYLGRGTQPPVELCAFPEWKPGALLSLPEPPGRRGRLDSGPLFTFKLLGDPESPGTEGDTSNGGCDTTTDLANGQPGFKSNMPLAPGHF

[4] = target: Sodium-dependent noradrenaline transporter (Homo sapiens, UniProt P23975); assay: DRUGMATRIX: Norepinephrine Transporter radioligand binding (ligand: [125I] RTI-55); assay type: cell membranes, MDCK, Membrane; settings: mdck; Not Active = under 50% inhibition at 10 µM
[5] = DRUGMATRIX: Glutamate, NMDA, Agonism radioligand binding (ligand: [3H] CGP-39653); assay type: cell membranes, Rattus norvegicus, Wistar, Cerebral cortex, Membrane; settings: Not Active = under 50% inhibition at 10 µM

Sequence of Tyrosine-protein kinase Fyn (P06241 whole entry): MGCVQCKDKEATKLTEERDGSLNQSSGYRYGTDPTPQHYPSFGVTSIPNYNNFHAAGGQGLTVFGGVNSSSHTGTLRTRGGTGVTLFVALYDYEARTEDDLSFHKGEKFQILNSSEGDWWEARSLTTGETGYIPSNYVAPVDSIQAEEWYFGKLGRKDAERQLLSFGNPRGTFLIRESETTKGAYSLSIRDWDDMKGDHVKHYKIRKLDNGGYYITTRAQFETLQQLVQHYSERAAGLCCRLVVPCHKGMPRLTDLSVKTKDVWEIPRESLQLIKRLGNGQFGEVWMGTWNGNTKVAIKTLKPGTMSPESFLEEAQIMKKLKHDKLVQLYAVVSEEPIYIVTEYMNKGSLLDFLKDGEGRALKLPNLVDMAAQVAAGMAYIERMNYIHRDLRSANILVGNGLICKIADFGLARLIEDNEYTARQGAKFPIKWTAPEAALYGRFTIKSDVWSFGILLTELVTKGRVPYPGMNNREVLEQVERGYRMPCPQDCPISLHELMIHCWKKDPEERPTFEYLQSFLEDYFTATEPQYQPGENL
Sequence of Sodium-dependent noradrenaline transporter (P23975 whole entry): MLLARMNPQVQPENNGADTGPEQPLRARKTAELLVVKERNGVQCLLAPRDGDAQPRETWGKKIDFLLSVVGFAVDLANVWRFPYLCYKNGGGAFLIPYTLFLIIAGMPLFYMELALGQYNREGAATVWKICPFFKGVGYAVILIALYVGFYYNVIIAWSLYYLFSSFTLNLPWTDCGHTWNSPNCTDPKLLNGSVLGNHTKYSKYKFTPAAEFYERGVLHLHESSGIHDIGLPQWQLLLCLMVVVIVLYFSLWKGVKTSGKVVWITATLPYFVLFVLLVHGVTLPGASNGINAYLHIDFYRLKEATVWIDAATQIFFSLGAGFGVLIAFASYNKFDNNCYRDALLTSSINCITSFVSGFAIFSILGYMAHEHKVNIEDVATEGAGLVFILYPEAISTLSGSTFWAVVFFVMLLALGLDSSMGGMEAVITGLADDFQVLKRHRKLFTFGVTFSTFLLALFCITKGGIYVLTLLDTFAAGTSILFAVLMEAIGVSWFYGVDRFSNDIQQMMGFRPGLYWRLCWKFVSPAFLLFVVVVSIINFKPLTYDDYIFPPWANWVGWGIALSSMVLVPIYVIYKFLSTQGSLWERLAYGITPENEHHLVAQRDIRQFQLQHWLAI

O=C(c1ccccc1C(F)(F)F)N1CCC(Cc2ccccc2)CC1
Not Active: IC50 (Progesterone receptor) | IC50 [1] | IC50 [2] | Ki [2] | IC50 [3] | IC50 [4] | IC50 [5] | Ki [5]

O=C/C=C/c1ccccc1
Not Active: IC50 (Progesterone receptor) | IC50 [1] | IC50 [2] | Ki [2] | IC50 [3] | IC50 [4] | IC50 [5] | Ki [5]

Nc1ccc2c3c(cccc13)C(=O)NC2=O
Not Active: IC50 (Progesterone receptor) | IC50 [1] | IC50 [2] | Ki [2] | IC50 [3] | IC50 [4] | IC50 [5] | Ki [5]

COc1ccc(C(=O)N2CCCC2=O)cc1
Not Active: IC50 (Progesterone receptor) | IC50 [1] | IC50 [2] | Ki [2] | IC50 [3] | IC50 [4] | IC50 [5] | Ki [5]

O=c1cnn([C@@H]2O[C@H](CO)[C@@H](O)[C@H]2O)c(=O)[nH]1 [6-AZAURIDINE]
Not Active: IC50 (Progesterone receptor) | IC50 [1] | IC50 [2] | Ki [2] | IC50 [3] | IC50 [4] | IC50 [5] | Ki [5]

CC[C@H](C)[C@H]1O[C@]2(C=C[C@@H]1C)C[C@@H]1C[C@@H](C/C=C(\C)[C@@H](O[C@H]3C[C@H](OC)[C@@H](O[C@H]4C[C@H](OC)[C@@H](O)[C@H](C)O4)[C@H](C)O3)[C@@H](C)/C=C/C=C3\CO[C@@H]4[C@H](O)C(C)=C[C@@H](C(=O)O1)[C@]34O)O2.CO[C@H]1C[C@H](O[C@H]2[C@H](C)O[C@@H](O[C@@H]3/C(C)=C/C[C@@H]4C[C@@H](C[C@]5(C=C[C@H](C)[C@@H](C(C)C)O5)O4)OC(=O)[C@@H]4C=C(C)[C@@H](O)[C@H]5OC/C(=C\C=C\[C@@H]3C)[C@]54O)C[C@@H]2OC)O[C@@H](C)[C@@H]1O [ABAMECTIN]
Not Active: IC50 (Progesterone receptor) | IC50 [1] | IC50 [2] | Ki [2] | IC50 [3] | IC50 [4] | IC50 [5] | Ki [5]

NCCCC(O)(P(=O)(O)O)P(=O)(O)O [ALENDRONIC ACID]
Not Active: IC50 (Progesterone receptor) | IC50 [1] | IC50 [2] | Ki [2] | IC50 [3] | IC50 [4] | IC50 [5] | Ki [5]

Cc1nnc2n1-c1ccc(Cl)cc1C(c1ccccc1)=NC2 [ALPRAZOLAM]
Not Active: IC50 (Progesterone receptor) | IC50 [1] | IC50 [2] | Ki [2] | IC50 [3] | IC50 [4] | IC50 [5] | Ki [5]

Cn1c(=O)c2[nH]cnc2n(C)c1=O.Cn1c(=O)c2[nH]cnc2n(C)c1=O.NCCN [AMINOPHYLLINE]
Not Active: IC50 (Progesterone receptor) | IC50 [1] | IC50 [2] | Ki [2] | IC50 [3] | IC50 [4] | IC50 [5] | Ki [5]

CCC1(CCC(C)C)C(=O)NC(=O)NC1=O [AMOBARBITAL]
Not Active: IC50 (Progesterone receptor) | IC50 [1] | IC50 [2] | Ki [2] | IC50 [3] | IC50 [4] | IC50 [5] | Ki [5]

CC1(C)S[C@@H]2[C@H](NC(=O)[C@H](N)c3ccccc3)C(=O)N2[C@H]1C(=O)O [AMPICILLIN]
Not Active: IC50 (Progesterone receptor) | IC50 [1] | IC50 [2] | Ki [2] | IC50 [3] | IC50 [5] | Ki [5]

COc1ccc(C2C(=O)c3ccccc3C2=O)cc1 [ANISINDIONE]
Not Active: IC50 (Progesterone receptor) | IC50 [1] | IC50 [2] | Ki [2] | IC50 [3] | IC50 [4] | IC50 [5] | Ki [5]

O=C1O[C@H]([C@@H](O)CO)C(O)=C1O [ASCORBIC ACID]
Not Active: IC50 (Progesterone receptor) | IC50 [1] | IC50 [2] | Ki [2] | IC50 [3] | IC50 [4] | IC50 [5] | Ki [5]
